From paper PMC11109052, “Metabolism characterization and toxicity of N-hydap, a marine candidate drug for lung cancer therapy by LC–MS method” (Natural Products and Bioprospecting, 2024)
Entries after “also recorded” stand apart in the source; their conditions may differ.

Tests used:
[1] = tested on: MLMs; assay: Kinetics of N-hydap glucuronidation in MLMs; assay type: in vitro ADME, mouse; conditions: MLM
Procedure: In this study, the rats were executed by drawing blood from the abdominal aorta and mice were sacrificed with cervical dislocation before the liver and kidneys were excised. The liver and kidneys were removed, and washed with chilled cleansing solution (contains 8 mM KH2PO4, 5.6 mM EDTA·K2·2H2O, 1 mM DTT and 229.6 μM PMSF), homogenized in a tissue homogenate buffer with a pH of 7.4, (consisting of […], 8 mM K2HPO4, 250 mM sucrose, 1 mM EDTA·K2·2H2O and 229.6 μM PMSF). Subsequently, the homogenate was centrifuged at 10,400 rpm at 4 °C for 15 min, and the supernatant was then centrifuged at 35,000 rpm at 4 °C for 60 min. A 250 mM sucrose buffer was added to the pellet to reconstitute and the resuspension was stored at − 80 °C until use. Microsome protein concentrations were measured by Omni-Easy™ Instant BCA Protein Assay Kit.
Various microsomes including HLMs, HKMs, HIMs, RLMs, RKMs, MLMs and MKMs were involved in CYP and UGT reactions of N-hydap. […]
The substrate concentrations used for HLMs were 0.05, 0.5, 2, 2.5, 5, 10, 25, 50, and 100 μM. […] The rates of N-hydap-G by enzymes were expressed as nmol/mg/min, representing the amount of metabolites formed per minute per milligram of protein. Kinetic parameters were determined by analyzing the Eadie–Hofstee plots. […]

[2] = tested on: RoRγ; parameters: method as in PMID 35259480; conditions: cited from earlier work
[3] = tested on: Cyp1a2; assay: Western blot protein level after 7 days gavage: CYP1A2; assay type: in vivo, mice; parameters: key to CYP1A2 Protein expression: ↑: up-regulation; ↓: down-regulation; –: no change
Procedure: (§1) Mice were randomly divided into four groups, with eight animals in each group. The mice received oral pretreatment with N-hydap for 7 days at doses of 2, 5, and 10 mg/kg/day, which were considered as the low dose, medium dose, and high dose, respectively. Correspondingly, the control group received PBS. On the 8th day, the liver and kidneys were removed, and organs from eight mice per group were combined to prepare MLMs and MKMs using the detailed procedures above. Subsequently, we determined the activity of CYP and UGT enzymes by specific substrate metabolized with MLMs (0.5 mg/mL) and MKMs (0.2 mg/mL) in vitro. Specifically, the following selective substrates were used for the respective enzymes: PH (1 μM) for CYP1A2, DIC (1 μM) for CYP2C9, MP (90 μM) for CYP2C19, DM (1 μM) for CYP2D6, CZX (10 μM) for CYP2E1, Tes (1 μM) for CYP3A4, SN38 (1 μM) for UGT1A1, CACD (100 μM) for UGT1A3, Sero (20 μM) for UGT1A6, and Prop (1 μM) for UGT1A9. All substrates were dissolved in methanol or DMSO. The incubation procedure was carried out as mentioned above, and the reaction was terminated with VER (20 ng/mL) in ESI+ mode and CLP (200 ng/mL) in ESI− mode. In the ex vivo experiments, the activity of enzymes was measured by quantifying the production of various metabolites (nM/mg protein/min). The metabolites and their corresponding enzymes are as follows: APAP from PH, 4-OH-DIC from DIC, 4-OH-MP from MP, DXO from DM, 6-OH-CZX from CZX, 6-OH-Tes from Tes, SN38-G from SN38, CACD-G from CACD, Sero-G from Sero, Prop-G from Prop. The measurements were performed using multiple reaction monitoring (MRM) transitions, which are specific mass spectrometry transitions used for quantification. […]
After 7 days of N-hydap gavage, the liver and kidney tissues were lysed using RIPA buffer supplemented with a 1% protease inhibitor cocktail. […] Western blot signals were detected using an ECL chemiluminescence detection agent. The relative intensity of each protein band was scanned and quantified using Image J software.

[4] = tested on: Cyp2e1; assay: DME activity ex vivo in MLMs and MKMs: CYP2E1 (6-OH-CZX from CZX); parameters: species or system mice; key: ↑: up-regulation; ↓: down-regulation; –: no change
Procedure: as §1, with “The incubation procedure was carried out as mentioned above, and the reaction was terminated with VER (20 ng/mL) in ESI+ mode and CLP (200 ng/mL) in ESI− mode.” left out, “The metabolites and their corresponding enzymes are as follows: APAP from PH, 4-OH-DIC from DIC, 4-OH-MP from MP, DXO from DM, 6-OH-CZX from CZX, 6-OH-Tes from Tes, SN38-G from SN38, CACD-G from CACD, Sero-G from Sero, Prop-G from Prop.” left out

[5] = tested on: normal wild-type mice; assay: Toxicity of 7-day gavage in normal wild-type mice
Procedure: During the continuous gavage administration of N-hydap (2, 5, 10 mg/kg) to mice, their body weight was monitored daily and the mice’s activity and mental state were closely observed. […] To assess the extent of injury in the heart, liver, and kidneys, cardiac LDH, plasma ALT, AST, and Cr were measured as biochemical markers (Fig. 7B–D). Additionally, blood routines were examined, including RBC (10^12/L), HCT (%), HGB (g/dL), WBC (10^9/L), PLT (10^9/L), and Lymphocytes (%), which were used as indicators to evaluate spleen toxicity (Fig. 7E). […] To investigate this further, HE staining on tissue sections was performed from both the control group and the highest dose group (10 mg/kg).
Fig. 7 Normal wild-type mice were administered by N-hydap (2, 5, 10 mg/kg) gavage for 7 days. A Changes in body weight in mice. B Cardiac LDH level. C, D Plasma ALT, AST and Cr levels. E Blood routine indicators including RBC, HCT, HGB, WBC, PLT and Lymphocytes. F H&E staining of sections of primary organs, original magnification ×200 (mean ± S.D, n = 5–6/group). ns, no significance, were compared with control group.

[6] = mice, 2, 5, 10 mg/kg gavage, 7 days

CC1CCC2C(C=CC(C)C2C(=O)c2c(O)c(C3(O)CCC(O)C4OC43)cn(O)c2=O)C1 (stereo not shown) [N-hydap, N-Hydroxyapiosporamide]
Km [1]: 263 µM | action on RoRγ [2]: RoRγ antagonist | CYP1A2 Protein expression ([3]; Kidney): ↑ | up-regulation of protein levels of CYP1A2 ([3]; mice, 10 mg/kg p.o. 7 days, kidney): 117% | decrease of protein levels of CYP1A2 ([3]; mice, p.o. 7 days, liver): 68% | CYP2E1 Enzymatic activity ([4]; Kidney): ↑ | CYP2E1 Enzymatic activity ([4]; Liver): ↓ | Toxicity LD50, experimental results ([5]; Table 4 experimental column): High security | behavior during gavage [5, 6]: did not exhibit any abnormal behavior | biochemical markers (cardiac LDH, plasma ALT, AST, Cr) and blood routine indicators vs control [5, 6]: did not show any significant differences | body weight [5, 6]: No significant changes | HE staining of important tissues and organs ([5]; mice, highest dose group 10 mg/kg, 7 days): maintained their structural integrity | toxicity of continuous gavage at normal doses ([5]; normal wild mice, 2, 5, 10 mg/kg, 7 days): did not result in significant toxicity; also recorded: did not exhibit any toxicity
